Values joined by “and” are separate entries in the source; they are usually repeats but may differ in a detail not shown here. Identical values can stand only once.
What was measured:
ML-2 = test: Differentiation-apoptosis assay, CD11b / annexin-V / Sytox Green / myeloid markers flow cytometry; type: cell-based, human; parameters: Cell viability: concentration or dose not given beside the values; CD11b levels: unit not given here
Method: Next, the cells were washed twice with phosphate-buffered saline (PBS) and resuspended in 1X Binding Buffer at a concentration of 1 × 10^6 cells/mL. An 8-µL aliquot of APC-CD11b (BD Pharmingen, Franklin Lakes, NJ, USA) and 1 µL of FITC annexin-V (AV) (BD Pharmingen, Franklin Lakes, NJ, USA) antibodies were added and incubated for 15 min at room temperature in the dark. Finally, after the addition of 400 µL of 1X Binding Buffer to each tube, samples were collected on a BD FACSCanto flow cytometer (Becton Dickinson, San Jose, CA, USA) and analyzed using FlowJo software.
For the rest of experiments, the mix of antibodies (2 µL of BV786-CD13, Cat No, 744748 BD; 1 µL of diluted 1:10 antibody of PB-HLADR, Cat No 307633, Biolegend; 5 µL of APCH7-CD14, Cat No 641394, BD) was added to 10 µL of Brilliant Stain Buffer Plus (Becton Dickinson, San Jose, CA, USA). Then, 1 million cells (volume of 250 µL) were added and incubated for 30 min at room temperature in darkness. After 10 min incubation at room temperature with 2 mL of FACSLysing 1X, cells were centrifuged at 540 g for 5 min and washed twice with FACSBuffer. Finally, after centrifugation at 540 g for 5 min cells were resuspended in FACSBuffer.

MONO-MAC-6 = test: Cell proliferation assay: GI50; type: cell-based
Method: (§1) Cell proliferation was analyzed using the CellTiter 96 Aqueous One Solution Cell Proliferation Assay (Promega, Madison, WI). This is a colorimetric method for determining the number of viable cells in proliferation. For the assay, suspension cells were cultured in triplicate at a density of 1 × 10^6 cells/mL in 96-well plates (100.000 cells/well, 100 µL/well), using only the 60 inner wells to avoid any border effects. After 48 h of treatment with different doses of each compound (0, 0.001, 0.01, 0.1, 0.2, 0.4, 0.6, 0.8, 1, 2, 3, 4, 5 and 10 µM), the plates were centrifuged at 800 g for 10 min followed by removal of the medium. Then, the cells were incubated with 100 μL/well of medium and 20 μL/well of CellTiter 96 Aqueous One Solution reagent for 1–3 h. The absorbance was recorded at 490 and 650 nm as reference wavelengths using 96-well plate readers until the absorbance of the control cells without treatment was approximately 0.8 AU. The background absorbance was measured in wells with only cell line medium and solution reagent. First, the average of the absorbance from the control wells was subtracted from all other absorbance values. Data were calculated as the percentage of total absorbance of treated cells/absorbance of non-treated cells. The GI50 values of the different compounds were determined using non-linear regression plots made with GraphPad Prism v5 software.

OCI-AML3 = test: Cell proliferation assay: GI50; type: cell-based
Method: as §1

UT-7 = test: Cell proliferation assay: GI50; type: cell-based
Method: as §1

M-07e = test: Cell proliferation assay: GI50; type: cell-based
Method: as §1

TF-1 = test: Cell proliferation assay: GI50; type: cell-based
Method: as §1

HEL = test: Cell proliferation assay: GI50; type: cell-based
Method: as §1

NB-4 = test: Cell proliferation assay: GI50; type: cell-based
Method: as §1

GF-D8 = test: Cell proliferation assay: GI50; type: cell-based
Method: as §1

OCI-AML2 = test: Cell proliferation assay: GI50; type: cell-based
Method: as §1

THP-1 = test: Cell proliferation assay: GI50; type: cell-based
Method: as §1

KASUMI-1 = test: Cell proliferation assay: GI50; type: cell-based
Method: as §1

[1] = ML-2 cell line, replicates 1-3 (Figure 2A)
[2] = Homo sapiens, OCI-AML-3, OCI-AML3, 48 h
[3] = Homo sapiens, OCI-AML-3, OCI-AML3, replicates 1-3
[4] = Homo sapiens, UT7, 48 h, UT-7, 48 h
[5] = Homo sapiens, UT7, UT-7, replicates 1-3
[6] = Homo sapiens, TF-1, TF-1, replicates 1-3
[7] = Homo sapiens, NB-4, NB-4, replicates 1-3
[8] = Homo sapiens, OCI-AML2, OCI-AML2, replicates 1-3
[9] = Homo sapiens, THP-1, replicates 1-3
[10] = Homo sapiens, Kasumi 1, 48 h, KASUMI-1, 48 h
[11] = Homo sapiens, Kasumi 1, KASUMI-1, replicates 1-3
[12] = ML-2, 48 h, replicates (Fig 4A)
[13] = ML-2, daily treatment, time 0 days, replicates 1-3 (Figure 2B)
[14] = ML-2, daily treatment, time 2 days, replicates 1-3 (Figure 2B)
[15] = ML-2, daily treatment, time 4 days, replicates 1-3 (Figure 2B)
[16] = ML-2, daily treatment, time 6 days, replicates 1-3 (Figure 2B)
[17] = ML-2, daily treatment, time 8 days, replicates 1-3 (Figure 2B)

For `CC1=C(/C=C/C(C)=C/C=C/C(C)=C/C(=O)O)C(C)(C)CCC1` [ATRA, all-trans retinoic acid, reference compound], which “CD11b (%)” value (ML-2; [1]) is on record?
The value was 5.2% and 4.2% and 6.05%.

What about the GI50 (MONO-MAC-6; Homo sapiens, MONO-MAC-6, 48 h) of the same molecule?
The GI50 was greater than 10 µM.

What about the GI50 (MONO-MAC-6; Homo sapiens, MONO-MAC-6, MONO-MAC-6, replicates 1-3) of the same molecule?
The GI50 was greater than 10 µM.

And the GI50 (MONO-MAC-6; MONO-MAC-6, replicates 1-3)?
Its GI50 is greater than 10 µM.

And the GI50 (OCI-AML3; [2])?
Its GI50 is greater than 10 µM.

And the GI50 (OCI-AML3; [3])?
Its GI50 is greater than 10 µM.

What about the GI50 (OCI-AML3; OCI-AML3, replicates 1-3) of the same molecule?
The GI50 was greater than 10 µM.

And the GI50 (UT-7; [4])?
The GI50 was greater than 10 µM.

What about the GI50 (UT-7; [5]) of the same molecule?
The GI50 was greater than 10 µM.

And the GI50 (UT-7; UT-7, replicates 1-3)?
Its GI50 is greater than 10 µM.

What about the GI50 (M-07e; 48 h) of the same molecule?
Its GI50 is greater than 10 µM.

What about the GI50 (M-07e; replicates 1-3) of the same molecule?
Its GI50 is greater than 10 µM.

What about the GI50 (TF-1; Homo sapiens, TF-1, 48 h) of the same molecule?
Its GI50 is greater than 10 µM.

What about the GI50 (TF-1; [6]) of the same molecule?
The GI50 was greater than 10 µM.

What about the GI50 (TF-1; TF-1, replicates 1-3) of the same molecule?
The GI50 was greater than 10 µM.

What about the GI50 (HEL; Homo sapiens, 48 h) of the same molecule?
The GI50 was greater than 10 µM.

And the GI50 (HEL; Homo sapiens, replicates 1-3)?
Its GI50 is greater than 10 µM.

And the GI50 (HEL; replicates 1-3)?
Its GI50 is greater than 10 µM.

And the GI50 (NB-4; Homo sapiens, NB-4, 48 h)?
The GI50 was greater than 10 µM.

What about the GI50 (NB-4; [7]) of the same molecule?
Its GI50 is greater than 10 µM.

And the GI50 (NB-4; NB-4, replicates 1-3)?
Its GI50 is greater than 10 µM.

And the GI50 (GF-D8; 48 h, GF-D8, 48 h)?
The GI50 was greater than 10 µM.

What about the GI50 (GF-D8; GF-D8, replicates 1-3) of the same molecule?
The GI50 was greater than 10 µM.

And the GI50 (OCI-AML2; Homo sapiens, OCI-AML2, 48 h)?
The GI50 was greater than 10 µM.

And the GI50 (OCI-AML2; [8])?
The GI50 was greater than 10 µM.

What about the GI50 (OCI-AML2; OCI-AML2, replicates 1-3) of the same molecule?
The GI50 was greater than 10 µM.

And the GI50 (THP-1; Homo sapiens, THP-1, 48 h)?
Its GI50 is greater than 10 µM.

What about the GI50 (THP-1; [9]) of the same molecule?
The GI50 was greater than 10 µM.

What about the GI50 (THP-1; THP-1, replicates 1-3) of the same molecule?
Its GI50 is greater than 10 µM.

What about the GI50 (KASUMI-1; [10]) of the same molecule?
The GI50 was greater than 10 µM.

What about the GI50 (KASUMI-1; [11]) of the same molecule?
Its GI50 is greater than 10 µM.

And the GI50 (KASUMI-1; KASUMI-1, replicates 1-3)?
The GI50 was greater than 10 µM.

Which results are given for `COc1cc2nc(-c3ccc(C)o3)cc(NCC3CCN(c4ncc(C(=O)NO)cn4)CC3)c2cc1OC` [CM-444, 2-[4-[[[6,7-dimethoxy-2-(5-methyl-2-furyl)-4-quinolyl]amino]methyl]-1-piperidyl]pyrimidine-5-carbohydroxamic acid]?
percentage of CD11b (ML-2; ML-2, 260 nM CM-444 or 210 nM CM-1758 daily for 4 days, before injection): > 90%; CD11b (%) (ML-2; ML-2, 48 h): 80.1%; CD13 (%) (ML-2; ML-2, 48 h): 100%; CD14 (%) (ML-2; ML-2, 48 h): 5.20%; HLA-DR (%) (ML-2; ML-2, 48 h): 35.7%; CD11b (ML-2; [12]): 89.5% and 75.9% and 74.5%; Cell viability (ML-2; [12]): 80.4% and 75.1% and 78.2%; differentiation level (CD11b) (ML-2; ML-2, after 6–8 days of treatment): ~90%; Annexin-V (%) (ML-2; [13]): 0% and 1.81% and 2.3%; CD11b (%) (ML-2; [13]): 9.3% and 9.32% and 7.24%; Annexin-V (%) (ML-2; [14]): 0% and 8.27% and 5.87%; CD11b (%) (ML-2; [14]): 24.52% and 30.8% and 32.5%; Annexin-V (%) (ML-2; [15]): 7.16% and 8.18% and 7.5%; CD11b (%) (ML-2; [15]): 47.58% and 64.3% and 58.4%; Annexin-V (%) (ML-2; [16]): 12.1% and 4.47% and 9.8%; CD11b (%) (ML-2; [16]): 89.87% and 81.3% and 87.3%; Annexin-V (%) (ML-2; [17]): 10.64% and 10.25% and 11.25%; CD11b (%) (ML-2; [17]): 92.1% and 91.7% and 93.4%; CD11b (%) (ML-2; [1]): 86.3% and 76.9% and 74.7%; CD11b levels (ML-2; ML-2 treated daily for 48 h, replicates (Fig 6E)): 70.9 and 75.6 and 72.7; GI50 (MONO-MAC-6; Homo sapiens, MONO-MAC-6, 48 h): 0.47 µM; GI50 (MONO-MAC-6; MONO-MAC-6, replicates 1-3): 0.215 µM and 0.607 µM and 0.588 µM; GI50 (OCI-AML3; [2]): > 10 µM; GI50 (OCI-AML3; [3]): > 10 µM; GI50 (OCI-AML3; OCI-AML3, replicates 1-3): > 10 µM; GI50 (UT-7; [4]): 0.97 µM; GI50 (UT-7; [5]): 0.875 µM; GI50 (UT-7; UT-7, replicates 1-3): 1.07 µM and 0.965 µM; GI50 (M-07e; replicates 1-3): 1.33 µM and 1.2 µM and 1.18 µM; GI50 (TF-1; [6]): 3.87 µM; GI50 (TF-1; TF-1, replicates 1-3): 3.25 µM and 3.5 µM; GI50 (HEL; Homo sapiens, replicates 1-3): 1.59 µM; GI50 (HEL; replicates 1-3): 1.12 µM and 0.938 µM; GI50 (NB-4; Homo sapiens, NB-4, 48 h): 0.668 µM; GI50 (NB-4; [7]): 0.658 µM; GI50 (NB-4; NB-4, replicates 1-3): 0.785 µM and 0.563 µM; GI50 (GF-D8; GF-D8, replicates 1-3): 7.25 µM and 4.12 µM and 3.69 µM; GI50 (OCI-AML2; Homo sapiens, OCI-AML2, 48 h): 0.64 µM; GI50 (OCI-AML2; [8]): 0.736 µM; GI50 (OCI-AML2; OCI-AML2, replicates 1-3): 0.574 µM and 0.612 µM; GI50 (THP-1; Homo sapiens, THP-1, 48 h): > 10 µM; GI50 (THP-1; [9]): > 10 µM; GI50 (THP-1; THP-1, replicates 1-3): > 10 µM; GI50 (KASUMI-1; [10]): 0.668 µM; GI50 (KASUMI-1; [11]): 0.521 µM; GI50 (KASUMI-1; KASUMI-1, replicates 1-3): 0.698 µM and 0.786 µM
